These results are taken from patent US11319289B2, “5-hydroxy pyridine-based compound for use as P2X1 and P2X3 receptor antagonist and pharmaceutical composition comprising same” (GWANGJU INSTITUTE OF SCIENCE AND TECHNOLOGY, priority 2017, dated 2022).

The target of series [1] is T1, rP2X2/3 receptors (Rattus norvegicus, UniProt P49653+P49654).
T1 sequence (P49653 1-472): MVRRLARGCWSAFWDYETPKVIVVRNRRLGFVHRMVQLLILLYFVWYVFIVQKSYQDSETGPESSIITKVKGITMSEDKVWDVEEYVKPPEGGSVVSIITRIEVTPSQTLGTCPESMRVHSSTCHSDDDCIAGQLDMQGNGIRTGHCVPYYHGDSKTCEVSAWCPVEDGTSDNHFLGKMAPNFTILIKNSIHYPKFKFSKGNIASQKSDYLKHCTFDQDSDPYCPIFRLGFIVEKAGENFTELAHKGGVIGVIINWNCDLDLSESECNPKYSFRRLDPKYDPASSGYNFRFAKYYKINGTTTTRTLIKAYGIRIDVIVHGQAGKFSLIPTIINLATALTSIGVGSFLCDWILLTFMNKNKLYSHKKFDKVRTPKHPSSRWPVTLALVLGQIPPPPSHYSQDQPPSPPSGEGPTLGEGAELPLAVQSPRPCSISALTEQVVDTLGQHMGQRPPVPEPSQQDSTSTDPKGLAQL
T1 sequence (P49654 1-397): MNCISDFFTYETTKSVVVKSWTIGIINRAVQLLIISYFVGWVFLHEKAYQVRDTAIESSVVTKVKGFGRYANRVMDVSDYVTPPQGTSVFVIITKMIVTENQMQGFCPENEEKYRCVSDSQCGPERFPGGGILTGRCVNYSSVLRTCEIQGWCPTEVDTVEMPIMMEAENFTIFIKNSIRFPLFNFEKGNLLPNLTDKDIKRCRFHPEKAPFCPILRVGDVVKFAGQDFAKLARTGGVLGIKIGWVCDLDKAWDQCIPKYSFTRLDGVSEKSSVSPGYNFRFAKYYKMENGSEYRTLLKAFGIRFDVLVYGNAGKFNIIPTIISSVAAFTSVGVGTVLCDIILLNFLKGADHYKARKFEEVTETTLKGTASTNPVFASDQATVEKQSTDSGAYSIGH
The series is described as follows: Antagonistic effect for heterologous rP2X2/3 receptors. In kind it is cell-based. As to conditions: FIG. 2. The source says: FIGS. 2a to 2c show the antagonistic activity of Compound 29 of the present invention for P2X3 and P2X2/3 receptors (2a: hP2X3R, 2b: […]).

In series [2] the target is T2, CYP450 3A4 (Homo sapiens, UniProt P08684).
T2 construct: purchased Invitrogen
The series is described as follows: CYP inhibition assay (Vivid fluorometric), 3A4. It is filed as biochemical. As to conditions: 1 μM in Table 5. As for the experimental part:
(§1) CYP450 (1A2, 2C9, 3A4) enzyme assay was performed by a fluorometric assay using a Vivid® CYP450 screening kit (Invitrogen, USA, CA) in a 96-well black plate according to manufacturer's instructions with some modifications. The assay was performed at room temperature, and the final assay volume was 100 μL. […]
(§2) A master pre-mixture (enzyme (0.5 nmol recombinant human CYP450 enzyme)/NADP regeneration solution (333 mM glucose-6-phosphate dissolved, 30 U/mL glucose-6-phosphate dehydrogenase in 100 mM KH2PO4 solution at pH 8.0)) was prepared as a CYP450 reaction buffer (200 mM KH2PO4, pH 8.0). The master pre-mixture was added to each well of the 96 well plate, followed by the vehicle DMSO (control) and test compounds, and the mixture was preincubated for 10 minutes in the plate for background reading. Subsequently, the enzyme reaction was immediately initiated through the addition of CYP450 substrate/NADP^+ mixture. After incubation for 40 minutes, the fluorescence of the product was measured with a CHAMELEON™ multi-technology plate reader (2C9, 3A4: excitation wavelength of 530 nm and emission wavelength of 590 nm, 1A2: excitation wavelength of 415 nm and emission wavelength of 460 nm). The effect of the test compounds on CYP450 (1A2, 2C9, 3A4) was expressed as the percentage of enzyme activity.

The target of series [3] is T3, CYP450 2C9 (Homo sapiens, UniProt P11712).
T3 construct: purchased Invitrogen
The series is described as follows: CYP inhibition assay (Vivid fluorometric), 2C9. The conditions noted are these: 1 μM in Table 5. It is filed as biochemical. The procedure:
as §1, §2

Series [4] deals with T4, CYP1A2 (Homo sapiens, UniProt P05177).
T4 construct: purchased Invitrogen
T4 sequence (P05177 1-516): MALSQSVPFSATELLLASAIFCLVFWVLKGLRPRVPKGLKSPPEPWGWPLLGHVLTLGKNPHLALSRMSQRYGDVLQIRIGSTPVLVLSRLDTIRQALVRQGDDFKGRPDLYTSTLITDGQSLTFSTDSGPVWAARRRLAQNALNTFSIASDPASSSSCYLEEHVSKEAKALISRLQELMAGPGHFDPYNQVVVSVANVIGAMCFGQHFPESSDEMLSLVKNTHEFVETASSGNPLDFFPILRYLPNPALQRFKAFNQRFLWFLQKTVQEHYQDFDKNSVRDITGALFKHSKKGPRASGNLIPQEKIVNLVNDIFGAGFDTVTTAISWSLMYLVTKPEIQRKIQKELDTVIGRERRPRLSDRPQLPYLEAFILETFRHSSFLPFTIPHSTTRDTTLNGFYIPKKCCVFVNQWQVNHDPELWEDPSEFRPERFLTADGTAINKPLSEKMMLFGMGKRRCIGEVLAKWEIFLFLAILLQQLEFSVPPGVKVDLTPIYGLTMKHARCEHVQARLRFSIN
The experiment in a line: CYP inhibition assay (Vivid fluorometric), 1A2. In kind it is biochemical. As to conditions: human, recombinant human CYP1A2, pH 8; 1 μM in Table 5; read-out: CYP450 inhibition, 1A2 isozyme. As for the experimental part: as §1, §2

Series [5] has as its target T5, CYP450 1A2 (Homo sapiens, UniProt P05177).
T5 construct: purchased Invitrogen
T5 sequence (P05177 1-516): T4 sequence (P05177 1-516)
The series is described as follows: CYP inhibition assay (Vivid fluorometric), 1A2. It is filed as biochemical. As to conditions: 1 μM in Table 5. The procedure: as §1, §2

T2 sequence (P08684 whole entry): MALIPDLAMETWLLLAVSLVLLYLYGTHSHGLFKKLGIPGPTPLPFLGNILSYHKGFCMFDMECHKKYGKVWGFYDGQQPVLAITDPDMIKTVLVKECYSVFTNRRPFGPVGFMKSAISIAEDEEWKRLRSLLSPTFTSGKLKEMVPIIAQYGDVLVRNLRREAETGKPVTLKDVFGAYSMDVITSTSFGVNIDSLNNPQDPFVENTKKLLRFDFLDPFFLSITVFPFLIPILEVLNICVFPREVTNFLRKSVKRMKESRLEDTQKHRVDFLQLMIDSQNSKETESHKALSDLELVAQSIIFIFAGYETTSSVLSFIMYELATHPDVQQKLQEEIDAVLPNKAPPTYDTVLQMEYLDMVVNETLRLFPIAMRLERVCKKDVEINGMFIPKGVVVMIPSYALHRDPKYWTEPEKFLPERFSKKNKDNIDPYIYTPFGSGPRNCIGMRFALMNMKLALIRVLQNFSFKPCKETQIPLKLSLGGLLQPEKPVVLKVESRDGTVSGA
T3 sequence (P11712 whole entry): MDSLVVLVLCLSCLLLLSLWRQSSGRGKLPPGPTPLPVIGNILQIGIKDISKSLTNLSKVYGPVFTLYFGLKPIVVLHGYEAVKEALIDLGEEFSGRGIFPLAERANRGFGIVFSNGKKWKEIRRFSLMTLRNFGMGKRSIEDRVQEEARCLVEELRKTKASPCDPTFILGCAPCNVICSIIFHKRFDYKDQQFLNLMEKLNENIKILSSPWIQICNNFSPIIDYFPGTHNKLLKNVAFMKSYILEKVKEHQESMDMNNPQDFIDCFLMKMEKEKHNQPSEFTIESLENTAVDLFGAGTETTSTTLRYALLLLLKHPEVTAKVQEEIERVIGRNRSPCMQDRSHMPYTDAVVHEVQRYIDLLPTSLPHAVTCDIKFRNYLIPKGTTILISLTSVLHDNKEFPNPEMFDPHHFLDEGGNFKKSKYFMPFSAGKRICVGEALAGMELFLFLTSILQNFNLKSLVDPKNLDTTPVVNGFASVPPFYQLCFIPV

As for `CCCc1nc(Cc2cccc(Oc3ccccc3)c2)c(C)c(C(=O)O)c1O` [Compound 29, 3-Hydroxy-5-methyl-6-(3-phenoxybenzyl)-2-propylisonicotinic acid], in series [1], the “antagonistic effect for heterologous rP2X2/3 receptors” value was “showed an antagonistic effect”. Besides, the “CYP450 inhibition, 3A4 isozyme” value in series [2] is “weak inhibitory effect”. The “CYP450 inhibition, 2C9 isozyme” value in series [3] is “weak inhibitory effect”. In series [4], the inhibition – broadly, the drop in the measured response relative to a control, in per cent – at 40 min, 1 µM is 36 ± 3%. The “CYP450 inhibition, 1A2 isozyme” value in series [5] is on record as “weak inhibitory effect”.
